We go through four compounds from PMC4509505 (Journal of functional foods, 2015).

Series [1] concerns the target T1, catechol-O-methyl transferase (COMT) (Mus musculus, UniProt O88587).
T1 sequence (O88587 1-265): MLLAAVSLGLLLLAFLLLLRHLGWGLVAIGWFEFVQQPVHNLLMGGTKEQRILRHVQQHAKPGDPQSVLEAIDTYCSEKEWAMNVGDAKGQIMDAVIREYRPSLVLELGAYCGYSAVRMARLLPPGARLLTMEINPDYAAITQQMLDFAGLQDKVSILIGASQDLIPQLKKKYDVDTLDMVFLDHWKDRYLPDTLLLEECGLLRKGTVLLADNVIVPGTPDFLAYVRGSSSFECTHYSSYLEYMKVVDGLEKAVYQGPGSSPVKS
Put plainly: Fraction of unmethylated total EGCG. The format is in vivo, male CF-1 mice.

Series [2] is classed as in vivo, male CF-1 mice. The conditions noted are these: for AUC0→720min / Cmax / Tmax: EGCG 100 mg/kg i.g.
The subject of a further series is human lung cancer cells. The conditions noted are these: human lung cancer cells in vitro; ref Forester & Lambert, 2014; cited from earlier work.
Another series concerns murine lung cancer cells. The conditions noted are these: murine lung cancer cells in vitro; ref Forester & Lambert, 2014; cited from earlier work.
The test system of a further series is COMT. The following applies: ref Wang, Heber, & Henning, 2012; cited from earlier work.

Read-outs that look alike come from different tables or passages of the source.

By Tmax is commonly meant the time from dosing to the highest level. For `O=C(O[C@@H]1Cc2c(O)cc(O)cc2O[C@@H]1c1cc(O)c(O)c(O)c1)c1cc(O)c(O)c(O)c1` [EGCG, (−)-epigallocatechin-3-gallate], the “unmethylated EGCG as fraction of the total” value in series [1] (plasma, EGCG 100 mg/kg i.g. with co-administration of TOL 30 mg/kg i.g.) is listed as 87.9%; in series [1] (plasma, mice treated with EGCG 100 mg/kg i.g. only) it was 63.4%; in series [1] (urine, EGCG 100 mg/kg i.g. plus TOL 30 mg/kg i.g.), 81.8%; in series [1] (urine, mice treated with EGCG 100 mg/kg i.g. only) it was 29.2%. In addition, the AUC0→720min is recorded as 39152.8 ± 8338.2 (nmol/g)•min in series [2] (Cecum, TOL (+) 30 mg/kg i.g.); 41580.2 ± 10560.6 (nmol/g)•min in series [2] (Cecum, TOL (−)); 18631.3 ± 2844.0 (nmol/g)•min in series [2] (Colon, TOL (+) 30 mg/kg i.g.); 26301.3 ± 8881.3 (nmol/g)•min in series [2] (Colon, TOL (−)); 461.7 ± 358.5 (nmol/g)•min in series [2] (Kidney, TOL (+) 30 mg/kg i.g.); 95.7 ± 5.6 (nmol/g)•min in series [2] (Kidney, TOL (−)). For the same compound, the AUC0→720min in series [2] (Liver, TOL (+) 30 mg/kg i.g.) is 1324.8 ± 390.5 (nmol/g)•min; in series [2] (Liver, TOL (−)), 871.5 ± 401.9 (nmol/g)•min; in series [2] (Lung, TOL (+) 30 mg/kg i.g.), 1002.1 ± 682.1 (nmol/g)•min; in series [2] (Lung, TOL (−)), 203.3 ± 156.4 (nmol/g)•min; in series [2] (Plasma, TOL (+) 30 mg/kg i.g.) it was 154887.7 ± 39082.1 nM·min; in series [2] (Plasma, TOL (−)) it was 245330.8 ± 74700.1 nM·min. For the same compound, the Cmax was 97.7 ± 19.4 nmol/g in series [2] (Cecum, TOL (+) 30 mg/kg i.g.); 117.7 ± 31.7 nmol/g in series [2] (Cecum, TOL (−)); 37.6 ± 5.8 nmol/g in series [2] (Colon, TOL (+) 30 mg/kg i.g.); 63.8 ± 9.6 nmol/g in series [2] (Colon, TOL (−)); 2.0 ± 1.7 nmol/g in series [2] (Kidney, TOL (+) 30 mg/kg i.g.); 0.4 ± 0.1 nmol/g in series [2] (Kidney, TOL (−)). Besides, the Cmax in series [2] (Liver, TOL (+) 30 mg/kg i.g.) was 2.7 ± 0.7 nmol/g; in series [2] (Liver, TOL (−)), 2.2 ± 0.9 nmol/g; in series [2] (Lung, TOL (+) 30 mg/kg i.g.), 23.3 ± 20.8 nmol/g; in series [2] (Lung, TOL (−)), 1.4 ± 1.2 nmol/g; in series [2] (Plasma, TOL (+) 30 mg/kg i.g.), 1530 ± 345 nM; in series [2] (Plasma, TOL (−)), 1190 ± 315 nM. The time to peak (Tmax) in series [2] (Cecum, TOL (+) 30 mg/kg i.g.) was determined as 453.3 ± 127.1 min; in series [2] (Cecum, TOL (−)), 300.8 ± 99.9 min; in series [2] (Colon, TOL (+) 30 mg/kg i.g.), 240 ± 60 min; in series [2] (Colon, TOL (−)), 420 ± 158.7 min; in series [2] (Kidney, TOL (+) 30 mg/kg i.g.), 266.7 ± 227.0 min; in series [2] (Kidney, TOL (−)), 361.7 ± 206.4 min. Moreover, the time of peak concentration (Tmax) in series [2] (Liver, TOL (+) 30 mg/kg i.g.) is given as 211.7 ± 107.5 min; in series [2] (Liver, TOL (−)) it was 200.0 ± 55.1 min; in series [2] (Lung, TOL (+) 30 mg/kg i.g.) it was 167.5 ± 113.6 min; in series [2] (Lung, TOL (−)), 141.3 ± 83.0 min; in series [2] (Plasma, TOL (+) 30 mg/kg i.g.), 12.5 ± 3.4 min; in series [2] (Plasma, TOL (−)), 16.7 ± 9.0 min. Moreover, the Tmax in series [2] (Urine (pooled), TOL (+) 30 mg/kg i.g.) amounted to 20 min; in series [2] (Urine (pooled), TOL (−)) it was 5 min.

For the compound `Cc1ccc(C(=O)c2cc(O)c(O)c([N+](=O)[O-])c2)cc1` [TOL, tolcapone, reference compound], the “effect on Cmax of unmethylated, unconjugated EGCG” value in series [2] (cecum or colon, TOL co-treatment vs EGCG only) is “did not affect”; in series [2] (plasma, liver, kidney, lung and urine, TOL co-administration vs EGCG only), “tended to increase”. The “effect on AUC0→720min of unmethylated, unconjugated EGCG” value was “tended to increase” in series [2] (liver, kidney, lung and urine, TOL co-administration vs EGCG only); “nor did it affect” in series [2] (plasma, cecum and colon, TOL co-treatment vs EGCG only). The “effect on levels of unmetabolised (unmethylated, unconjugated) EGCG” value in series [2] (plasma, co-treatment TOL 30 mg/kg + EGCG 100 mg/kg i.g. vs EGCG only (Fig. 2)) is listed as “did not significantly affect”. For the same compound, the “growth inhibition in combination with EGCG” value with human lung cancer cells and in the series with murine lung cancer cells was “synergistically inhibited” throughout.

For `CCN(CC)C(=O)/C(C#N)=C/c1cc(O)c(O)c([N+](=O)[O-])c1` [entacapone], the “growth inhibition in combination with EGCG” value in the series on human lung cancer cells and in the series with murine lung cancer cells was “synergistically inhibited” throughout.

For `O=c1c(O)c(-c2ccc(O)c(O)c2)oc2cc(O)cc(O)c12` [quercetin], the “increase of the levels of EGCG found in the lung and kidney” value with COMT was “greater than 2 fold”.
